pIC50: −log10 of the molar value. Structures can show the parent of a compound that is named as a salt. Where two headings read alike, the source gives them in different places.
Assays:
ROS1 [1] = target: T1, ROS1 (Homo sapiens, UniProt P08922); assay: ROS1 autophosphorylation inhibitory activity evaluation (ADP-Glo); type: biochemical; conditions: 200 nM inactive ROS1, ATP 1 mM, 25° C. 1.5 hours, ADP generated, four separate measurements
T1 construct: purchased Carna Biosciences 08-163
Experimental: Fifty mM HEPES (pH 7.5), 10 mM MgCl2, 0.01% Brij-58, and 2.5 mM DTT were mixed to prepare an enzymatic reaction solution. […] ATP (final concentration: 1 mM) was further added thereto at a concentration of 2.5 μL/well. The resulting plate was left standing at 25° C. for 1.5 hours to cause enzymatic reaction. After the completion of enzymatic reaction, ADP-Glo Reagent-1 (Promega, V9103) was added thereto at a concentration of 2.5 μL/well, and the plate was left standing at room temperature for 60 minutes. Then, ADP-Glo Reagent-2 (Promega) was added thereto at a concentration of 5 μL/well, and the plate was left standing at room temperature for 60 minutes. The amount of ADP generated by the autophosphorylation of ROS1 was measured using EnVision (PerkinElmer Japan). The amount of ADP generated in four separate measurements was defined as the autophosphorylation intensity of ROS1. IC50 values were calculated by curve fitting using GraphPad Prism version 4 (GraphPad software).

[2] = test system: HCC78 cells having ROS1 fusion gene; assay: HCC78 cell growth assay (CellTiter-Glo); type: cell-based; conditions: Homo sapiens, 72 hours culture, 2% FBS medium, luminescence, four separate measurements, read-out: growth inhibitory effect on HCC78 cells having ROS1 fusion gene IC50
Experimental: Each compound of the present invention was assayed for its cell growth inhibitory effect using HCC78 cells having ROS1 fusion gene.
The suspension was dispensed at a concentration of 100 μL/well to a 96-well culture plate for cell culture (SUMITOMO BAKELITE, Cat No MS-0096S) (hereinafter, referred to as an assay plate). […] In this context, the final concentration of DMSO was set to 0.4%. Then, the cells were cultured for 72 hours in a CO2 incubator.
CellTiter-Glo Luminescent Cell Viability Assay reagent (Promega, Cat No G7571) was dispensed at a concentration of 100 μL/well to the assay plate. The contents in each well were reacted at room temperature for 10 minutes while stirred using a plate mixer. […] The luminescence intensity of each well was measured using EnVision. The luminescence intensity of each well obtained in four separate measurements was defined as the number of cells. IC50 values were calculated by curve fitting using GraphPad Prism version 4.

ROS1 [3] = target: T1, ROS1; assay: ROS1 kinase inhibitory activity evaluation (mobility shift, EZ Reader II); type: biochemical; conditions: ROS1 25 pg/μL, FL-Peptide 22 substrate, three separate measurements
Experimental: Next, a substrate reaction solution was prepared. […] Then, the reaction stop solution was added thereto at a concentration of 40 μL/well. Substrate phosphorylation intensity was measured using EZ Reader II (Caliper Life Sciences).

T1 sequence (P08922 28-2347): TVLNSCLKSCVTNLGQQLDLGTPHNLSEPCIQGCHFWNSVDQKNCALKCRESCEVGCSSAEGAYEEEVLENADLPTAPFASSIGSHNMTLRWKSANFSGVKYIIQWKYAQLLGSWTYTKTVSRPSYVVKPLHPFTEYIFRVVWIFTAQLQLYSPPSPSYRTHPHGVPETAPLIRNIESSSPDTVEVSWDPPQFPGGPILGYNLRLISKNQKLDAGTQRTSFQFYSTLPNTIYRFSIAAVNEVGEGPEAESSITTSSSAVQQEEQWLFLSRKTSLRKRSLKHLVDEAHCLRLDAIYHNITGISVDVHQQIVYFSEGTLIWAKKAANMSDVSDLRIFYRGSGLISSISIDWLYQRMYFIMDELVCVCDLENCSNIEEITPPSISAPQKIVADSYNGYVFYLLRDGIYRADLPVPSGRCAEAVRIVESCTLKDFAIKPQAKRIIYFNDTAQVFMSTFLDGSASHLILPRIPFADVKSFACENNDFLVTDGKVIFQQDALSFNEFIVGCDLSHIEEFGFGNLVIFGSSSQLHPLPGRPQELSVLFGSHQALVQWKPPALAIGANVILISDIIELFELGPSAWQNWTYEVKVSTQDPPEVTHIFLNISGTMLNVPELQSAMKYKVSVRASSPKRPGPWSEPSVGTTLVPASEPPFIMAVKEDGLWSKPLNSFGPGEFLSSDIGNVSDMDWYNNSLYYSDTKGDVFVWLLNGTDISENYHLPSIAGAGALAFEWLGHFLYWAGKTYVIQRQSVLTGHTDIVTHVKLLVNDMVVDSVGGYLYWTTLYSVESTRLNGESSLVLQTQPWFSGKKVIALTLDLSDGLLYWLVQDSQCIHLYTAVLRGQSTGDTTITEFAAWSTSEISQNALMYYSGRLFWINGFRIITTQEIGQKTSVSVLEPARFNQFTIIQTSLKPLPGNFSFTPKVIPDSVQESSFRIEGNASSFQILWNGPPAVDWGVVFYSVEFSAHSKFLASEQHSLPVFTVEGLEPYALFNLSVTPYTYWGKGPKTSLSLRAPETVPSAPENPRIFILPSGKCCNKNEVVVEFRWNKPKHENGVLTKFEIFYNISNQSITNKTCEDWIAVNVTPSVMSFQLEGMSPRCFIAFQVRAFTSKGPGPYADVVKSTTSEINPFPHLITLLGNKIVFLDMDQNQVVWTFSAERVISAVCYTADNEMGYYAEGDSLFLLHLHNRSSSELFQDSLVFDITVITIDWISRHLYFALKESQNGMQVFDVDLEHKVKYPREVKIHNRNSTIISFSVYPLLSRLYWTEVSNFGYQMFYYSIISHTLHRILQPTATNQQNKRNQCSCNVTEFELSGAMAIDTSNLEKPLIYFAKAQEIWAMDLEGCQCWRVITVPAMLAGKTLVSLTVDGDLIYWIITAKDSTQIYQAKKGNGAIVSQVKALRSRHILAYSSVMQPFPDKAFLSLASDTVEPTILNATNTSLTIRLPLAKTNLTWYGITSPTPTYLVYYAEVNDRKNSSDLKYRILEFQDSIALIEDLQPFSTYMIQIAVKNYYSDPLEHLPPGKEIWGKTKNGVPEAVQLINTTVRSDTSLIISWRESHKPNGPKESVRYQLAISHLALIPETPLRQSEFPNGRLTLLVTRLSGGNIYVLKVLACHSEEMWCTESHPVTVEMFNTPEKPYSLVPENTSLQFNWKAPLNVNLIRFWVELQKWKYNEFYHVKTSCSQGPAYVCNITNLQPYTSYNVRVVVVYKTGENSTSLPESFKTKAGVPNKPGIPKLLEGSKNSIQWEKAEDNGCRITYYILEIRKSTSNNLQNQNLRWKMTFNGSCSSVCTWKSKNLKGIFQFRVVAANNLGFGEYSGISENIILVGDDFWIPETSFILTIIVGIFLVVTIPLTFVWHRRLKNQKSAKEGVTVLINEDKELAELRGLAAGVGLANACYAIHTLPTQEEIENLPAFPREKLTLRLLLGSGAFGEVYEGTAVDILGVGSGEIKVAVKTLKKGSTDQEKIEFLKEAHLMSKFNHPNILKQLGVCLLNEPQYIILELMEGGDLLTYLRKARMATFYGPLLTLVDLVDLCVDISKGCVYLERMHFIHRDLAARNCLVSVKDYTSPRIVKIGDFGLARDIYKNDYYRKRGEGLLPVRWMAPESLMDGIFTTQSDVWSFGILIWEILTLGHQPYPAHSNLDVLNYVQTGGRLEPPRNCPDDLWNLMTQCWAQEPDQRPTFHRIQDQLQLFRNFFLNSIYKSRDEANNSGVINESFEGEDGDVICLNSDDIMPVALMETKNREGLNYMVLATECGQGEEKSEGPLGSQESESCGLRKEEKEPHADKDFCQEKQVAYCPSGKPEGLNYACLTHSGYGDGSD

## CC(Oc1ccc2ncc(-c3ccc(N4C[C@@H](N)CC4=O)cc3)n2n1)c1cncc(Cl)c1 (stereo partly shown) [Example 112]
ROS1 [1]
  pIC50: > 7.70
[2]; HCC78, 72 h
  pIC50: 7.00 to 7.70
ROS1 [3]
  pIC50: 8.00 to 9.00

## C[C@@H](Nc1ccc2ncc(-c3ccc(N4C[C@@H](N)CC4=O)cc3F)n2n1)c1cccc(F)c1 [Example 93, (4S)-4-Amino-1-[3-fluoro-4-[6-[[(1R)-1-(3-fluorophenyl)ethyl]amino]imidazo[1,2-b]pyridazin-3-yl]phenyl]pyrrolidin-2-one]
ROS1 [1]
  pIC50: > 7.70
[2]; HCC78, 72 h
  pIC50: > 7.70
ROS1 [3]
  pIC50: > 9.00

## Fc1cccc(COc2ccc3ncc(-c4ccc(OC[C@H]5CCCN5)cc4)n3n2)c1 [Example 11, 6-[(3-Fluorophenyl)methoxy]-3-[4-[[(2R)-pyrrolidin-2-yl]methoxy]phenyl]imidazo[1,2-b]pyridazine]
ROS1 [1]
  pIC50: 7.00 to 7.70
[2]; HCC78, 72 h
  pIC50: 6.22 to 7.00
ROS1 [3]
  pIC50: 8.00 to 9.00

## CN(Cc1cccc(F)c1)c1ccc2ncc(-c3ccc(N4C[C@@H](N)CC4=O)nc3)n2n1 [Example 128, (4S)-4-Amino-1-[5-[6-[(3-fluorophenyl)methyl-methylamino]imidazo[1,2-b]pyridazin-3-yl]-2-pyridyl]pyrrolidin-2-one]
ROS1 [1]
  pIC50: > 7.70
[2]; HCC78, 72 h
  pIC50: 7.00 to 7.70
ROS1 [3]
  pIC50: > 9.00

## CN(Cc1cccc(F)c1)c1ccc2ncc(-c3ccc(N4CC(C)(N)CC4=O)cc3)n2n1 (stereo not shown) [Example 84, 4-Amino-1-[4-[6-[(3-fluorophenyl)methyl-methylamino]imidazo[1,2-b]pyridazin-3-yl]phenyl]-4-methylpyrrolidin-2-one]
ROS1 [1]
  pIC50: 7.00 to 7.70
[2]; HCC78, 72 h
  pIC50: 7.00 to 7.70
ROS1 [3]
  pIC50: 8.00 to 9.00

## Cc1cc(N2C[C@@H](N)CC2=O)ccc1-c1cnc2ccc(N[C@H](C)c3ccccc3)nn12 [Example 89, (4S)-4-Amino-1-[3-methyl-1-[6-[[(1R)-1-phenylethyl]amino]imidazo[1,2-b]yl]phenyl]pyrrolidin-2-one]
ROS1 [1]
  pIC50: 7.00 to 7.70
[2]; HCC78, 72 h
  pIC50: 6.22 to 7.00
ROS1 [3]
  pIC50: 7.22 to 8.00

## CN(Cc1cccc(F)c1)c1ccc2ncc(-c3ccc(N4C[C@@H](N)CC4=O)c(C#N)c3)n2n1 [Example 131, 2-[(4S)-4-Amino-2-oxopyrrolidin-1-yl]-5-[6-[(3-fluorophenyl)methyl-methylamino]imidazo[1,2-b]pyridazin-3-yl]benzonitrile]
ROS1 [1]
  pIC50: > 7.70
[2]; HCC78, 72 h
  pIC50: 7.00 to 7.70
ROS1 [3]
  pIC50: 8.00 to 9.00

## C[C@@H](N)COc1ccc(-c2cnc3ccc(N[C@H](C)c4cccc(F)c4)nn23)cn1 [Example 53, 3-[6-[(2R)-2-Aminopropoxy]-3-pyridyl]-N-[(1R)-1-(3-fluorophenyl)ethyl]imidazo[1,2-b]pyridazin-6-amine]
ROS1 [1]
  pIC50: > 7.70
[2]; HCC78, 72 h
  pIC50: > 7.70
ROS1 [3]
  pIC50: > 9.00

## C[C@@H](Nc1ccc2ncc(-c3ccc(O[C@H]4C[C@@H](N)C4)cc3)n2n1)c1cccc(F)c1 [Example 61, 3-[4-(3-cis-Aminocyclobutoxy)phenyl]-N-[(1R)-1-(3-fluorophenyl)ethyl]imidazo[1,2-b]pyridazin-6-amine]
ROS1 [1]
  pIC50: > 7.70
[2]; HCC78, 72 h
  pIC50: 7.00 to 7.70
ROS1 [3]
  pIC50: 8.00 to 9.00

## CN(Cc1cc(F)ccc1F)c1ccc2ncc(-c3ccc(N4C[C@@H](N)CC4=O)nc3)n2n1 [Example 129, (4S)-4-Amino-1-[5-[6-[(2,5-difluorophenyl)methyl-methylamino]imidazo[1,2-b]pyridazin-3-yl]-2-pyridyl]pyrrolidin-2-one]
ROS1 [1]
  pIC50: 7.00 to 7.70
[2]; HCC78, 72 h
  pIC50: 7.00 to 7.70
ROS1 [3]
  pIC50: 8.00 to 9.00

## C[C@@H](Nc1ccc2ncc(-c3ccc(OCCN)cc3)n2n1)c1cccc(F)c1 [Example 26, 3-[4-(2-Aminoethoxy)phenyl]-N-[(1R)-1-(3-fluorophenyl)ethyl]imidazo[1,2-b]pyridazin-6-amine]
ROS1 [1]
  pIC50: > 7.70
[2]; HCC78, 72 h
  pIC50: > 7.70
ROS1 [3]
  pIC50: > 9.00

## C[C@@H](Nc1ccc2ncc(-c3ccc(OCCNCCO)cc3)n2n1)c1cccc(F)c1 [Example 42, 2-[2-[4-[6-[[(1R)-1-(3-Fluorophenyl)ethyl]amino]imidazo[1,2-b]pyridazin-3-yl]phenoxy]ethylamino]ethanol]
ROS1 [1]
  pIC50: > 7.70
[2]; HCC78, 72 h
  pIC50: > 7.70
ROS1 [3]
  pIC50: > 9.00

## C[C@@H](Nc1ccc2ncc(-c3cc(F)cc(OC[C@@H]4CCN4)c3)n2n1)c1cccc(F)c1 [Example 62, 3-[3-[[(2S)-Azetidin-2-yl]methoxy]-5-fluoro-phenyl]-N-[(1R)-1-(3-fluorophenyl)ethyl]imidazo[1,2-b]pyridazin-6-amine]
ROS1 [1]
  pIC50: 7.00 to 7.70
[2]; HCC78, 72 h
  pIC50: 7.00 to 7.70
ROS1 [3]
  pIC50: > 9.00

## CN(Cc1cncc(F)c1)c1ccc2ncc(-c3ccc(N4CC(C)(N)CC4=O)cc3)n2n1 (single isomer, unassigned) [Example 125, 4-Amino-1-[4-[6-[(5-fluoro-3-pyridyl)methyl-methylamino]imidazo[1,2-b]pyridazin-3-yl]phenyl]-4-methylpyrrolidin-2-one]
ROS1 [1]
  pIC50: 7.00 to 7.70

## C[C@@H](Nc1ccc2ncc(-c3ccc(OC[C@@H]4CCCN4)cc3)n2n1)c1ccccc1 [Example 19, N-[(1R)-1-Phenylethyl]-3-[4-[[(2S)-pyrrolidin-2-yl]methoxy]phenyl]imidazo[1,2-b]pyridazin-6-amine]
ROS1 [1]
  pIC50: > 7.70
[2]; HCC78, 72 h
  pIC50: 6.22 to 7.00
ROS1 [3]
  pIC50: 8.00 to 9.00

## NC1CC(=O)N(c2ccc(-c3cnc4ccc(NCc5ccccc5)nn34)cc2)C1 (stereo not shown) [Example 72, 4-Amino-1-[4-[6-(benzylamino)imidazo[1,2-b]pyridazin-3-yl]phenyl]pyrrolidin-2-one]
ROS1 [1]
  pIC50: > 7.70
[2]; HCC78, 72 h
  pIC50: > 7.70
ROS1 [3]
  pIC50: > 9.00

## CNCCOc1ccc(-c2cnc3ccc(N[C@H](C)c4cccc(F)c4)nn23)cn1 [Example 46, N-[(1R)-1-(3-Fluorophenyl)ethyl]-3-[6-[2-(methylamino)ethoxy]-3-pyridyl]imidazo[1,2-b]pyridazin-6-amine]
ROS1 [1]
  pIC50: > 7.70
[2]; HCC78, 72 h
  pIC50: > 7.70
ROS1 [3]
  pIC50: > 9.00

## c1ccc(CNc2ccc3ncc(-c4cccc(O[C@@H]5CCNC5)c4)n3n2)cc1 [Example 4, N-Benzyl-3-[3-[(3R)-pyrrolidin-3-yl]oxyphenyl]imidazo[1,2-b]pyridazin-6-amine]
ROS1 [1]
  pIC50: 6.82 to 7.00
[2]; HCC78, 72 h
  pIC50: 6.22 to 7.00
ROS1 [3]
  pIC50: 8.00 to 9.00

## CC(N)COc1ccc(-c2cnc3ccc(N[C@H](C)c4cccc(F)c4)nn23)cc1 (stereo partly drawn) [Example 35, 3-[4-(2-Aminopropoxy)phenyl]-N-[(1R)-1-(3-fluorophenyl)ethyl]imidazo[1,2-b]pyridazin-6-amine]
[2]; HCC78, 72 h
  pIC50: > 7.70

## C[C@@H](Nc1ccc2ncc(-c3ccc(OC4CCCC4N)cc3)n2n1)c1cccc(F)c1 (single isomer, unassigned) [Example 32]
ROS1 [1]
  pIC50: > 7.70
ROS1 [3]
  pIC50: > 9.00

## C[C@@H](Oc1ccc2ncc(-c3ccc(N4C[C@@H](N)CC4=O)cc3)n2n1)c1cccc(F)c1 [Example 133, (4S)-4-Amino-1-[4-[6-[(1R)-1-(3-fluorophenyl)ethoxy]imidazo[1,2-b]pyridazin-3-yl]phenyl]pyrrolidin-2-one hydrochloride]
ROS1 [1]
  pIC50: > 7.70

## CN(Cc1cccc(Cl)c1)c1ccc2ncc(-c3ccc(N4CC(N)CC4=O)cc3)n2n1 (stereo not shown) [Example 96, 4-Amino-1-[4-[6-[(3-chlorophenyl)methyl-methylamino]imidazo[1,2-b]pyridazin-3-yl]phenyl]pyrrolidin-2-one]
[2]; HCC78
  pIC50: 6.22 to 7.00

## CC(Oc1ccc2ncc(-c3ccc(N4C[C@@H](N)CC4=O)cc3)n2n1)c1cc(F)cnc1F (stereo partly drawn) [Example 134, (4S)-4-Amino-1-[4-[6-[(1-(2,5-difluoro-3-pyridyl)ethoxy]imidazo[1,2-b]pyridazin-3-yl]phenyl]pyrrolidin-2-one hydrochloride]
ROS1 [3]
  pIC50: 8.00 to 9.00

## C[C@@H](Oc1ccc2ncc(-c3ccc(OC[C@@H]4CCCN4)cc3)n2n1)c1cccc(F)c1 [Example 16, 6-[(1R)-1-(3-Fluorophenyl)ethoxy]-3-[4-[[(2S)-pyrrolidin-2-yl]methoxy]phenyl]imidazo[1,2-b]pyridazine]
[2]; HCC78, 72 h
  pIC50: 7.00 to 7.70
ROS1 [3]
  pIC50: > 9.00

## CN(Cc1cccc(F)c1)c1ccc2ncc(-c3ccc(N4CC(C)(N)CC4=O)cc3)n2n1 (single isomer, unassigned) [Example 86, 4-Amino-1-[4-[6-[(3-fluorophenyl)methyl-methylamino]imidazo[1,2-b]pyridazin-3-yl]phenyl]-4-methylpyrrolidin-2-one]
ROS1 [1]
  pIC50: > 7.70

From patent US9751887B2, “Imidazo[1,2-b]pyridazine derivatives as kinase inhibitors” (Daiichi Sankyo Company, Limited, priority 2012, dated 2017)
